Data as given in patent publication US9790169B2, “IDO inhibitors” (BRISTOL-MYERS SQUIBB COMPANY, priority 2015, dated 2017).
pIC50: −log10 of the molar value.

molecular target: human IDO1 (Homo sapiens, UniProt P14902); assay: Assessment of human IDO-1 inhibitory activity in HEK cells (human IDO1/HEK293 cells, kynurenine read-out with Ehrlich reagent, absorbance 490 nm); type: cell-based; set-up: expressed in transfected cells; settings: HEK Human IDO-1 cellular assay
Summary of the method: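 HEK293 cells stably expressing human IDO1 were seeded at 10,000 per well in phenol red-free RPMI with 10% FBS, treated with compound for 20 h at 37 °C. Kynurenine was measured after TCA (0.2% final) and 30 min at 50 °C, using Ehrlich reagent, A490. IC50 normalised to DMSO (0%) and 500 nM reference standard (100%).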

Sequence of human IDO1 (P14902 whole entry): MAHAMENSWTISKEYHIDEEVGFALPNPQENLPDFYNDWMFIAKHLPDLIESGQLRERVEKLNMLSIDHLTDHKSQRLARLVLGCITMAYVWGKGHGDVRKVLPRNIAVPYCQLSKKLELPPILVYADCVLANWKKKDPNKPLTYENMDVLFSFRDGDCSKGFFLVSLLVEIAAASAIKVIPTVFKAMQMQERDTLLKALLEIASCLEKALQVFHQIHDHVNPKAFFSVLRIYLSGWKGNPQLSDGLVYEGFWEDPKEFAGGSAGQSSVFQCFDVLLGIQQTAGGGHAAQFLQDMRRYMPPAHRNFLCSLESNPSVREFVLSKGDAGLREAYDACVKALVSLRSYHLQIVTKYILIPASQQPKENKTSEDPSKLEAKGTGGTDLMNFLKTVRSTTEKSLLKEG

`COCC(CC(=O)O)c1ccc(N(CC(C)C)CC(C)C)c(NC(=O)Nc2ccc(Cl)cc2F)c1` (racemic) [Example 994, (+/−)-3-(3-(3-(4-Chloro-2-fluorophenyl)ureido)-4-(diisobutylamino)phenyl)-4-methoxybutanoic acid] and `COCC(CC(=O)O)c1ccc(N(CC(C)C)CC(C)C)c(NC(=O)Nc2cc(C)on2)c1` (single isomer, unassigned) [999-1] cannot be ordered by pIC50: greater than 8.30 for the first, greater than 7.30 for the second.

`CCCN(c1ccc([C@@H](COC)CC(=O)O)cc1Nc1ccc(F)cc1)C1CCOCC1` (single isomer, unassigned) [Example 562] and `CCCN(c1ccc([C@@H](COC)CC(=O)O)cc1Nc1ccc(Cl)cc1)C1CCOCC1` (single isomer, unassigned) [Example 564] cannot be ordered by pIC50: greater than 8.30 for the first, greater than 8.30 for the second.

`CCN(c1ccc(C(C)CC(=O)O)cc1NC(=O)Nc1ccc(Cl)cc1F)C1CCOCC1` (single isomer, unassigned) [Example 637 E1, 3-(3-(3-(4-Chloro-2-fluorophenyl)ureido)-4-(ethyl(tetrahydro-2H-pyran-4-yl)amino)phenyl)butanoic acid] and `CC[C@@H](CC(=O)O)c1ccc(N(CC)C2CCOCC2)c(NC(=O)Nc2ccc(Cl)cc2F)c1` (single isomer, unassigned) [Example 489] cannot be ordered by pIC50: greater than 8.30 for the first, greater than 8.30 for the second.

`CCCN(c1ccc(C(CC)CC(=O)O)cc1Nc1ncc(CC)cn1)C1CCOCC1` (racemic) [Example 611, 3-(3-((5-Ethylpyrimidin-2-yl)amino)-4-(propyl(tetrahydro-2H-pyran-4-yl)amino)phenyl)pentanoic acid] and `CCC(CC(=O)O)c1ccc(N(CC2CC2)C2CCOCC2)c(Nc2cnc(OC)nc2)c1` (single isomer, unassigned) [Example 703, 3-(4-((cyclopropylmethyl) (tetrahydro-2H-pyran-4-yl)amino)-3-((2-methoxypyrimidin-5-yl)amino)phenyl)pentanoic acid] cannot be ordered by pIC50: greater than 7.30 for the first, greater than 8.30 for the second.

`COCC(CC(=O)O)c1ccc(N(CC2CC2)C2CCOCC2)c(Nc2ccc(C(N)=O)nc2)c1` (single isomer, unassigned) [Example 688, 3-(3-((6-carbamoylpyridin-3-yl)amino)-4-((cyclopropylmethyl) (tetrahydro-2H-pyran-4-yl)amino)phenyl)-4-methoxybutanoic acid] and `COCC(CC(=O)O)c1ccc(N(CC2CC2)C2CCOCC2)c(Nc2ccc(Cl)cc2)c1` (single isomer, unassigned) [Example 690, 3-(3-((4-chlorophenyl)amino)-4-((cyclopropylmethyl) (tetrahydro-2H-pyran-4-yl)amino)phenyl)-4-methoxybutanoic acid] cannot be ordered by pIC50: less than 7.30 for the first, less than 7.30 for the second.

`CCC(CC(=O)O)c1ccc(N(CC(C)C)C2CCCCC2)c(Nc2ccc(C#N)cc2)c1` (single isomer, unassigned) [Example 314, 3-(3-((4-cyanophenyl)amino)-4-(cyclohexyl (isobutyl)amino)phenyl) pentanoic acid] and `CC[C@@H](CC(=O)O)c1ccc(N(CC)C2CCCCC2)c(Nc2ccc(C#N)cc2)c1` (single isomer, unassigned) [Example 283] cannot be ordered by pIC50: greater than 8.30 for the first, greater than 8.30 for the second.

`CCC(CC(=O)O)c1cc(NC(=O)Nc2cncnc2)c(N(CC(C)C)C2CCCCC2)cc1F` (racemic) [Example 1122, (±)-3-(4-(cyclohexyl(isobutyl)amino)-2-fluoro-5-(3-(pyrimidin-5-yl)ureido)phenyl)pentanoic acid] and `COCC(CC(=O)O)c1ccc(N(CC(C)C)C2CCCCC2)c(NC(=O)Nc2cncnc2)c1` (single isomer, unassigned) [991-1] cannot be ordered by pIC50: greater than 8.30 for the first, greater than 7.30 for the second.

`CC[C@H](CC(=O)O)c1ccc(N(CC)C2CCOCC2)c(Nc2ccc(OCC(F)(F)F)cc2)c1` (single isomer, unassigned) [Example 515] and `CCN(c1ccc(C(C)CC(=O)O)cc1Nc1ccc(C#N)cc1)C1CCOCC1` (single isomer, unassigned) [Example 613, 3-(3-((4-cyanophenyl)amino)-4-(ethyl(tetrahydro-2H-pyran-4-yl)amino)phenyl) butanoic acid] cannot be ordered by pIC50: greater than 8.30 for the first, greater than 8.30 for the second.

`CCN(c1ccc([C@@H](COC)CC(=O)O)cc1NC(=O)Nc1ccc(OC)nc1)C1CCOCC1` (single isomer, unassigned) [Example 426] and `CCN(c1ccc([C@H](COC)CC(=O)O)cc1NC(=O)Nc1ccc(OC)cc1F)C1CCOCC1` (single isomer, unassigned) [Example 435] cannot be ordered by pIC50: less than 7.30 for the first, less than 7.30 for the second.

`CC(CC(=O)O)c1ccc(N(CC(C)(C)O)C2CCCCC2)c(Nc2ccc3c(c2)OC(F)(F)O3)c1` (single isomer, unassigned) [Example 53, 3-(4-(cyclohexyl(2-hydroxy-2-methylpropyl)amino)-3-((2,2-difluorobenzo[d][1,3]dioxol-5-yl)amino)phenyl)butanoic acid] and `CCC(CC(=O)O)c1ccc(N(CC(C)C)C2CCCCC2)c(Nc2ccc3c(c2)OC(F)(F)O3)c1` (single isomer, unassigned) [Example 299, 3-(4-(Cyclohexyl(isobutyl)amino)-3-((2,2-difluorobenzo[d][1,3]dioxol-5-yl)amino)phenyl)pentanoic acid] cannot be ordered by pIC50: greater than 8.30 for the first, greater than 8.30 for the second.

`CCOc1ncc(Nc2cc(C(C)CC(=O)O)ccc2N(CC(C)(C)O)C2CCCCC2)cn1` (single isomer, unassigned) [Example 54, 3-(4-(cyclohexyl(2-hydroxy-2-methylpropyl)amino)-3-((2-ethoxypyrimidin-5-yl)amino)phenyl)butanoic acid] and `CCOc1ccc(Nc2cc([C@@H](CC)CC(=O)O)ccc2N(CC(C)(C)O)C2CCOCC2)c(F)c1` (single isomer, unassigned) [Example 201] cannot be ordered by pIC50: greater than 7.30 for the first, greater than 7.30 for the second.

`CCC(CC(=O)O)c1ccc(N(CC)C2CCS(=O)(=O)CC2)c(Nc2ccc(C#N)cc2)c1` (single isomer, unassigned) [Example 337, 3-(3-((4-cyanophenyl)amino)-4-((1,1-dioxidotetrahydro-2H-thiopyran-4-yl)(ethyl)amino)phenyl) pentanoic acid] and `CC[C@@H](CC(=O)O)c1ccc(N(CC(C)C)C2CCS(=O)(=O)CC2)c(Nc2ccc3sc(C)nc3c2)c1` (single isomer, unassigned) [Example 219] cannot be ordered by pIC50: greater than 8.30 for the first, greater than 8.30 for the second.

First: CC[C@@H](CC(=O)O)c1ccc(N2CCOC[C@@H]2C(C)C)c(Nc2ccc3c(c2)OC(F)(F)O3)c1 (single isomer, unassigned) [Example 81]
Second: CCC(CC(=O)O)c1ccc(N2CCC[C@@H]2C(C)(C)O)c(Nc2ccc3c(c2)OC(F)(F)O3)c1 (single isomer, unassigned) [Example 781]
The pIC50 of the first is higher: greater than 7.30 for the first, less than 7.30 for the second. The first is the more potent here.

First: CCC(CC(=O)O)c1ccc(N(CC2CC2)C2CCOCC2)c(NC(=O)Nc2ccc(C)cc2)c1 (single isomer, unassigned) [Example 695, 3-(4-((Cyclopropylmethyl)(tetrahydro-2H-pyran-4-yl)amino)-3-(3-(p-tolyl)ureido)phenyl)pentanoic acid]
Second: CC[C@@H](CC(=O)O)c1ccc(N(CC)C2CCOCC2)c(NC(=O)Nc2ccc(Cl)cc2)c1 (single isomer, unassigned) [Example 494]
The pIC50 of the first is higher: greater than 7.30 for the first, less than 7.30 for the second.

`CCC(CC(=O)O)c1cc(NC(=O)Nc2ccc3c(c2)OCO3)c(N(CC(C)C)CC(C)C)cc1F` (racemic) [Example 1134, (±)-3-(5-(3-(Benzo[d][1,3]dioxol-5-yl)ureido)-4-(diisobutylamino)-2-fluorophenyl)pentanoic acid] and `CCC(CC(=O)O)c1cc(NC(=O)Nc2ccc(C)cc2)c(N(CC(C)C)CC(C)C)cc1F` (single isomer, unassigned) [Example 1129, 3-(4-(Diisobutylamino)-2-fluoro-5-(3-(p-tolyl)ureido)phenyl)pentanoic acid] cannot be ordered by pIC50: greater than 8.30 for the first, greater than 8.30 for the second.

Going from `COCC(CC(=O)O)c1ccc(N(CC2CC2)C2CCOCC2)c(Nc2ccc3nc(C)sc3c2)c1` (single isomer, unassigned) [Example 689, 3-(4-((cyclopropylmethyl) (tetrahydro-2H-pyran-4-yl)amino)-3-((2-methylbenzo[d]thiazol-6-yl)amino)phenyl)-4-methoxybutanoic acid] to `CC[C@@H](CC(=O)O)c1ccc(N(CC)C2CCOCC2)c(Nc2ccc3nc(C)sc3c2)c1` (single isomer, unassigned) [Example 484], the pIC50 rises from less than 7.30 to greater than 8.30. The second is the more potent here.

First: CC[C@@H](CC(=O)O)c1ccc(N(CC)C2CCOCC2)c(Nc2ccn3nc(C)c(F)c3n2)c1 (single isomer, unassigned) [Example 473]
Second: CCC(CC(=O)O)c1ccc(N(CC)C2CCOCC2)c(NC(=O)Nc2ccc(OC)cc2F)c1 (racemic) [Example 608, 3-(4-(Ethyl(tetrahydro-2H-pyran-4-yl)amino)-3-(3-(2-fluoro-4-methoxyphenyl)ureido)phenyl)pentanoic acid]
The pIC50 of the first is lower: less than 7.30 for the first, greater than 8.30 for the second. The second is the more potent here.

`CCC(CC(=O)O)c1ccc(N(CC(C)C)C2CCCCC2)c(Nc2ccc3c(c2)OCCO3)c1` (single isomer, unassigned) [Example 301, 3-(4-(cyclohexyl(isobutyl)amino)-3-((2,3-dihydrobenzo[b][1,4]dioxin-6-yl)amino)phenyl) pentanoic acid] and `CCC(CC(=O)O)c1ccc(N(CC2CC2)C2CCOCC2)c(Nc2ccc3c(c2)OC(F)(F)O3)c1` (single isomer, unassigned) [Example 704, 3-(4-((cyclopropylmethyl) (tetrahydro-2H-pyran-4-yl)amino)-3-((2,2-difluorobenzo[d][1,3]dioxol-5-yl)amino)phenyl) pentanoic acid] cannot be ordered by pIC50: greater than 7.30 for the first, greater than 7.30 for the second.

`CCCN(CC1CC1)c1ccc(C(CC)CC(=O)O)cc1Nc1ccc2c(c1)OC(F)(F)O2` (single isomer, unassigned) [Example 662, 3-(4-((cyclopropylmethyl)(propyl)amino)-3-((2,2-difluorobenzo[d] [1,3]dioxol-5-yl)amino)phenyl) pentanoic acid] and `CCN(c1ccc(C(C)(C)CC(=O)O)cc1NC(=O)Nc1ccc(C)cc1)C1CCC(C)(O)CC1` (centres unmarked) [Example 5, 3-(4-(Ethyl(4-hydroxy-4-methylcyclohexyl)amino)-3-(3-(p-tolyl)ureido)phenyl)-3-methylbutanoic acid] cannot be ordered by pIC50: greater than 8.30 for the first, greater than 7.30 for the second.
